# Reference: patent US11840528B2 (Hoffmann-La Roche Inc., priority 2018, dated 2023)
# Experiments:
# [1] = target: T1, h-GABA-A α5β3γ2 (Homo sapiens, UniProt P18507+P31644); assay: Two-electrode voltage clamp electrophysiology in Xenopus laevis oocytes expressing GABAA receptors, modulation of GABA EC20 current; format: cell-based; parameters: host or cells: Xenopus laevis oocytes micro-injected with RNA transcripts of the subunits
# How it was run: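 Human α5β3γ2 GABAA receptors were expressed in Xenopus oocytes by RNA injection, with γ2 RNA 5–10-fold higher, and recorded 3–5 days later by two-electrode voltage clamp at −80 mV at room temperature. The test compound, at about 30× its Ki, was co-applied during a second GABA EC20 pulse. Efficacy is the extremum of the point-by-point ratio to the first response, expressed as 100*(Fold increase−1).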
# [2] = target: T1, h-GABA-A α5β3γ2; assay: [3H]flumazenil competition binding assay, membranes of HEK293 cells expressing GABAA receptors
# How it was run: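 Membranes from HEK293 cells transiently expressing human α5β3γ2 GABAA receptors, in Krebs-tris buffer pH 7.5, competed against [3H]flumazenil for 1 hour at 4° C to equilibrium. Bound radioactivity collected on GF/C filters and counted by liquid scintillation; Ki values are means of two determinations.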
# [3] = % modulation of GABA EC20 = 100*(Fold increase-1), Table 1
# [4] = test compound at approx. 30 fold its Ki, GABA at EC20, Table 1
# [5] = displacement of [3H]-Flumazenil 0.5 nM, HEK293 cells expressing human receptors, mean of two determinations, Table 1
# [6] = reference compounds, % modulation of GABA EC20, Table 2
Structure (SMILES),"Efficacy (GABA) % [1, 3]","Fold increase h-GABA-A α5β3γ2 oocyte [1, 4]","Ki [2, 5]","Efficacy (GABA) % [1, 6]","Fold increase h-GABA-A α5β3γ2 oocyte ([1]; reference compounds, Table 2)","Ki ([2]; reference compounds, Table 2)"
"COC1(C)CCN(c2cnn(Cc3c(-c4ccc(Cl)nc4)noc3C)c(=O)c2)CC1 [Example 262, 2-((3-(6-chloropyridin-3-yl)-5-methylisoxazol-4-yl)methyl)-5-(4-methoxy-4-methylpiperidin-1-yl)pyridazin-3(2H)-one]",216%,3.16,35.5 nM,,,
"Cc1ccc(-c2noc(C)c2Cn2ncc(N3CC4(CCC(F)CO4)C3)cc2=O)nn1 (single isomer, unassigned) [Example 319]",91%,1.91,1 nM,,,
"Cc1ccc(-c2noc(C3CC3)c2Cn2ncc(N3CC4(CCCCO4)C3)cc2=O)nn1 [Example 259, 2-[[5-cyclopropyl-3-(6-methylpyridazin-3-yl)isoxazol-4-yl]methyl]-5-(5-oxa-2-azaspiro[3.5]nonan-2-yl)pyridazin-3-one]",193%,2.93,36.2 nM,,,
"Cc1ccc(-c2noc(C)c2Cn2ncc(N3CCC4(CC3)CC(F)CCO4)cc2=O)nn1 (single isomer, unassigned) [Example 327]",122%,2.22,3.6 nM,,,
"Cc1ncc(-c2noc(C)c2Cn2ncc(N3CC4(CCCO4)C3)cc2=O)cc1F [Example 208, 2-((3-(5-fluoro-6-methylpyridin-3-yl)-5-methylisoxazol-4-yl)methyl)-5-(5-oxa-2-azaspiro[3.4]octan-2-yl)pyridazin-3(2H)-one]",110%,2.1,61.2 nM,,,
"Cc1onc(-c2ccccc2)c1COc1ccc(C(=O)N2CCOCC2)nn1 [RO-096, reference compound]",,,,−16%,0.84,26 nM
"Cc1onc(-c2ccc(Cl)nc2)c1Cn1ncc(N2CC3(CCC(F)CO3)C2)cc1=O (single isomer, unassigned) [Example 298]",116%,2.16,25.4 nM,,,
"Cc1onc(-c2ccccc2)c1COc1ccc(N2CCCC2)nn1 [RO-035, reference compound]",,,,−35%,0.65,10.5 nM
"Cc1ccc(-c2noc(C)c2Cn2ncc(N3CC4(C[C@H](OC(F)F)CO4)C3)cc2=O)nn1 [Example 246, 5-[(7S)-7-(difluoromethoxy)-5-oxa-2-azaspiro[3.4]octan-2-yl]-2-[[5-methyl-3-(6-methylpyridazin-3-yl)isoxazol-4-yl]methyl]pyridazin-3-one]",130%,2.3,3.4 nM,,,
"Cc1ccc(-c2noc(C)c2Cn2ncc(N3CC4(CCC(C)(C)O4)C3)cc2=O)nn1 [Example 310, 5-(6,6-dimethyl-5-oxa-2-azaspiro[3.4]octan-2-yl)-2-[[5-methyl-3-(6-methylpyridazin-3-yl)isoxazol-4-yl]methyl]pyridazin-3-one]",105%,2.05,14.2 nM,,,
"Cc1onc(-c2ccc(Cl)nc2)c1Cn1ncc(N2C[C@@H](C)O[C@@H](C)C2)cc1=O [Example 219, 2-((3-(6-chloropyridin-3-yl)-5-methylisoxazol-4-yl)methyl)-5-((2RS,6SR)-2,6-dimethylmorpholino)pyridazin-3(2H)-one]",247%,3.47,2.6 nM,,,
"Cc1ccc(-c2noc(CF)c2Cn2ncc(N3CC4(CCC(F)CO4)C3)cc2=O)nn1 (single isomer, unassigned) [Example 329]",164%,2.64,58.7 nM,,,

# Continued, values first:
"Efficacy (GABA) % [1, 3]","Fold increase h-GABA-A α5β3γ2 oocyte [1, 4]","Ki [2, 5]","Efficacy (GABA) % [1, 6]","Fold increase h-GABA-A α5β3γ2 oocyte ([1]; reference compounds, Table 2)","Ki ([2]; reference compounds, Table 2)",Structure (SMILES)
244%,3.44,23.7 nM,,,,"Cc1ccc(-c2noc(C)c2Cn2ncc(-c3cnn(C(F)F)c3)cc2=O)cn1 [Example 154, 5-(1-(difluoromethyl)-1H-pyrazol-4-yl)-2-((5-methyl-3-(6-methylpyridin-3-yl)isoxazol-4-yl)methyl)pyridazin-3(2H)-one]"
145%,2.45,0.6 nM,,,,"Cc1ccc(-c2noc(C)c2Cn2ncc(N3CCOC(C)(C)C3)cc2=O)cn1 [Example 6, 5-(2,2-dimethylmorpholin-4-yl)-2-((5-methyl-3-(6-methylpyridin-3-yl)-1,2-oxazol-4-yl)methyl)pyridazin-3-one]"
123%,2.23,24.2 nM,,,,"COc1ccc(-c2cnn(Cc3c(-c4ccc(C)nc4)noc3C)c(=O)c2)cn1 [Example 81, 5-(6-methoxypyridin-3-yl)-2-((5-methyl-3-(6-methylpyridin-3-yl)isoxazol-4-yl)methyl)pyridazin-3(2H)-one]"
181%,2.81,38.4 nM,,,,"Cc1ccc(-c2noc(C)c2Cn2ncc(N3CC4(COC4)C3)cc2=O)cn1 [Example 38, 2-[[5-methyl-3-(6-methyl-3-pyridyl)isoxazol-4-yl]methyl]-5-(2-oxa-6-azaspiro[3.3]heptan-6-yl)pyridazin-3-one]"
160%,2.6,37.4 nM,,,,"Cc1ccc(-c2noc(C)c2Cn2ncc(N3CC(Oc4ccc(C)nn4)C3)cc2=O)cn1 [Example 186, 2-[[5-methyl-3-(6-methyl-3-pyridyl)isoxazol-4-yl]methyl]-5-[3-(6-methylpyridazin-3-yl)oxyazetidin-1-yl]pyridazin-3-one]"
187%,2.87,25.1 nM,,,,"Cc1ccc(-c2noc(C)c2Cn2ncc(N3CC(Oc4ccc(Cl)cn4)C3)cc2=O)cn1 [Example 130, 5-[3-[(5-chloro-2-pyridyl)oxy]azetidin-1-yl]-2-[[5-methyl-3-(6-methyl-3-pyridyl)isoxazol-4-yl]methyl]pyridazin-3-one]"
132%,2.32,0.4 nM,,,,"Cc1ccc(-c2noc(C)c2Cn2ncc(N3CCNC4(CC4)C3)cc2=O)cn1 [Example 74, 5-(4,7-diazaspiro[2.5]octan-7-yl)-2-[[5-methyl-3-(6-methyl-3-pyridyl)isoxazol-4-yl]methyl]pyridazin-3-one]"
119%,2.19,50 nM,,,,"Cc1onc(-c2ccc(Cl)nc2)c1Cn1ncc(-c2cnn(C)c2)cc1=O [Example 215, 2-((3-(6-chloropyridin-3-yl)-5-methylisoxazol-4-yl)methyl)-5-(1-methyl-1H-pyrazol-4-yl)pyridazin-3(2H)-one]"
93%,1.93,14.3 nM,,,,"Cc1ccc(-c2noc(C)c2Cn2ncc(N3CC4(C[C@H](F)CO4)C3)cc2=O)cn1 [Example 201, 5-[(7S)-7-fluoro-5-oxa-2-azaspiro[3.4]octan-2-yl]-2-[[5-methyl-3-(6-methyl-3-pyridyl)isoxazol-4-yl]methyl]pyridazin-3-one]"
81%,1.81,24 nM,,,,"Cc1ccc(-c2noc(C)c2Cn2ncc(-c3ccc(OC(F)(F)F)cc3)cc2=O)cn1 [Example 114, 2-((5-methyl-3-(6-methyl-3-pyridyl)isoxazol-4-yl)methyl)-5-(4-(trifluoromethoxy)phenyl)pyridazin-3-one]"
121%,2.21,17.8 nM,,,,"Cc1ccc(-c2noc(C)c2Cn2ncc(N3CC4(C[C@@H](OC(F)F)CO4)C3)cc2=O)cn1 [Example 203, 5-[(7R)-7-(difluoromethoxy)-5-oxa-2-azaspiro[3.4]octan-2-yl]-2-[[5-methyl-3-(6-methyl-3-pyridyl)isoxazol-4-yl]methyl]pyridazin-3-one]"
76%,1.76,43.1 nM,,,,"Cc1onc(-c2ccc(Cl)nc2)c1Cn1ncc(N2CC3(CCC(C(F)(F)F)CO3)C2)cc1=O (single isomer, unassigned) [Example 323]"
95%,1.95,7.2 nM,,,,"Cc1ccc(-c2noc(C)c2Cn2ncc(N3CC4(C3)CC(F)(F)CO4)cc2=O)cn1 [Example 193, 5-(7,7-difluoro-5-oxa-2-azaspiro[3.4]octan-2-yl)-2-[[5-methyl-3-(6-methyl-3-pyridyl)isoxazol-4-yl]methyl]pyridazin-3-one]"
170%,2.7,12 nM,,,,"Cc1ccc(-c2noc(C)c2Cn2ncc(N3CC(Oc4ccnc(Cl)c4)C3)cc2=O)cn1 [Example 147, 5-[3-[(2-chloro-4-pyridyl)oxy]azetidin-1-yl]-2-[[5-methyl-3-(6-methyl-3-pyridyl)isoxazol-4-yl]methyl]pyridazin-3-one]"
136%,2.36,2.9 nM,,,,"Cc1ccc(-c2noc(C)c2Cn2ncc(N3CC(Oc4ccnc(Cl)c4)C3)cc2=O)nn1 [Example 236, 5-[3-[(2-chloro-4-pyridyl)oxy]azetidin-1-yl]-2-[[5-methyl-3-(6-methylpyridazin-3-yl)isoxazol-4-yl]methyl]pyridazin-3-one]"
